Experiments:
Assay in all cases: relative viability (nuclei count vs DMSO), 5 days (fraction); higher = more cells survive
XMD14-99 + Bortezomib = compound: CN1CCN(CC1)C2=CC(=C(C=C2)NC3=NC(=C(S3)C(=O)C4=C(C=CC=C4Cl)Cl)N)OC [XMD14-99] + CC(C)C[C@H](NC(=O)[C@H](Cc1ccccc1)NC(=O)c1cnccn1)B(O)O [Bortezomib] (partner 0.002 µM)
Summary of the method: (§1)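 A single step with final 0.05% Triton X-100, 1% formaldehyde and 1 ug/ml Hoechst fixed the cells and stained nuclei 5 days after treatment. Lung cancer cell lines in 1536-well plates had been treated by pin tool the day after seeding with one drug alone or a fixed anchor-drug dose plus five library-drug doses (not always all listed) in √10 steps, and nuclei were counted on 4× images. Relative viability is the ratio of nuclei in treated wells to nuclei in vehicle wells, taken as the median of duplicate plates.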

XMD14-99 + Olaparib = compound: CN1CCN(CC1)C2=CC(=C(C=C2)NC3=NC(=C(S3)C(=O)C4=C(C=CC=C4Cl)Cl)N)OC [XMD14-99] + O=C(c1cc(Cc2n[nH]c(=O)c3ccccc23)ccc1F)N1CCN(C(=O)C2CC2)CC1 [Olaparib] (partner 8 µM)
Summary of the method: as §1

AZD1208 + Dasatinib = compound: N[C@@H]1CCCN(c2c(/C=C3\SC(=O)NC3=O)cccc2-c2ccccc2)C1 [AZD1208] + Cc1nc(Nc2ncc(C(=O)Nc3c(C)cccc3Cl)s2)cc(N2CCN(CCO)CC2)n1 [Dasatinib] (partner 0.075 µM)
Summary of the method: as §1

XMD14-99 + Pictilisib = compound: CN1CCN(CC1)C2=CC(=C(C=C2)NC3=NC(=C(S3)C(=O)C4=C(C=CC=C4Cl)Cl)N)OC [XMD14-99] + CS(=O)(=O)N1CCN(Cc2cc3nc(-c4cccc5[nH]ncc45)nc(N4CCOCC4)c3s2)CC1 [Pictilisib] (partner 1 µM)
Summary of the method: as §1

Cell Line | relative viability (XMD14-99 + Bortezomib; first compound 0.08 µM) | relative viability (XMD14-99 + Bortezomib; first compound 0.8 µM) | relative viability (XMD14-99 + Bortezomib; first compound 2.53 µM) | relative viability (XMD14-99 + Bortezomib; first compound 8 µM) | relative viability (XMD14-99 + Olaparib; first compound 0.08 µM) | relative viability (XMD14-99 + Olaparib; first compound 0.8 µM) | relative viability (XMD14-99 + Olaparib; first compound 2.53 µM) | relative viability (XMD14-99 + Olaparib; first compound 8 µM) | relative viability (AZD1208 + Dasatinib; first compound 0.08 µM) | relative viability (AZD1208 + Dasatinib; first compound 0.253 µM) | relative viability (AZD1208 + Dasatinib; first compound 0.8 µM) | relative viability (AZD1208 + Dasatinib; first compound 2.53 µM) | relative viability (AZD1208 + Dasatinib; first compound 8 µM) | relative viability (XMD14-99 + Pictilisib; first compound 0.08 µM) | relative viability (XMD14-99 + Pictilisib; first compound 0.8 µM) | relative viability (XMD14-99 + Pictilisib; first compound 2.53 µM) | relative viability (XMD14-99 + Pictilisib; first compound 8 µM)
201T | 1.11 | 1.08 | 1.03 | 1.03 | 0.861 | 0.799 | 0.776 | 0.695 | 0.579 | 0.557 | 0.522 | 0.504 | 0.51 | 0.7 | 0.666 | 0.658 | 0.619
A549 |  |  |  |  | 0.471 | 0.377 | 0.311 | 0.27 |  |  |  |  |  | 0.397 | 0.545 | 0.505 | 0.348
A-427 | 0.933 | 0.924 | 0.77 | 0.829 | 0.793 | 0.628 | 0.67 | 0.501 | 0.553 | 0.644 | 0.531 | 0.659 | 0.431 | 0.694 | 0.784 | 0.607 | 0.448
ABC-1 | 0.296 | 0.343 | 0.346 | 0.281 | 0.696 | 1.03 | 0.737 | 0.673 | 0.667 | 0.509 | 0.522 | 0.69 | 0.563 | 0.754 | 0.667 | 0.588 | 0.47
BEN | 0.88 | 0.901 | 0.924 | 0.531 | 0.979 | 1.06 | 0.786 | 0.773 | 0.334 | 0.243 | 0.285 | 0.299 | 0.314 | 0.554 | 0.523 | 0.641 | 0.442
CAL-12T | 1.07 | 0.954 | 0.899 | 0.634 | 0.674 | 0.785 | 0.671 | 0.607 | 0.316 | 0.393 | 0.329 | 0.48 | 0.464 | 0.397 | 0.453 | 0.334 | 0.287
COR-L23 | 1 | 0.816 | 0.86 | 0.576 | 0.345 | 0.298 | 0.298 | 0.193 | 0.471 | 0.508 | 0.479 | 0.452 | 0.523 | 0.676 | 0.748 | 0.68 | 0.414
COR-L 105 | 0.841 | 0.805 | 0.614 | 0.473 | 0.657 | 0.699 | 0.682 | 0.621 | 0.34 | 0.34 | 0.308 |  | 0.356 | 0.363 | 0.374 | 0.34 | 0.357
Calu-6 | 0.944 | 0.875 | 0.85 | 0.598 | 0.524 | 0.529 | 0.502 | 0.472 |  |  |  |  |  | 0.881 | 0.824 | 0.785 | 0.57
ChaGo-K-1 | 1.06 | 1.02 | 0.964 | 0.92 | 0.473 | 0.438 | 0.403 | 0.292 | 0.657 | 0.624 | 0.518 | 0.539 | 0.514 | 0.811 | 0.703 | 0.67 | 0.509
EBC-1 | 0.57 | 0.503 | 0.384 | 0.285 | 0.771 | 0.635 | 0.646 | 0.382 |  |  |  |  |  | 0.481 | 0.391 | 0.318 | 0.26
EKVX | 0.965 | 0.998 | 0.983 | 0.736 | 0.763 | 0.837 | 0.904 | 0.73 | 0.637 | 0.245 | 0.51 | 0.498 | 0.48 | 0.422 | 0.488 | 0.487 | 0.35
EMC-BAC-2 | 0.989 | 1.08 | 0.995 | 0.923 | 0.507 | 0.483 | 0.443 | 0.422 | 0.301 | 0.319 | 0.321 | 0.32 | 0.264 | 0.573 | 0.519 | 0.519 | 0.413
EPLC-272H | 0.886 | 1.01 | 0.904 | 0.912 | 0.711 | 0.809 | 0.802 | 0.422 | 0.3 | 0.363 | 0.286 | 0.305 | 0.252 | 0.338 | 0.338 | 0.284 | 0.247
H3255 | 0.729 | 0.895 | 0.532 | 0.297 | 0.577 | 0.507 | 0.491 | 0.343 | 0.438 | 0.413 | 0.362 | 0.385 | 0.43 | 0.451 | 0.39 | 0.403 | 0.302
HARA | 1.15 | 1.14 | 0.922 | 0.867 | 0.816 | 0.999 | 0.589 | 0.491 | 0.284 | 0.273 | 0.236 | 0.261 | 0.284 | 0.35 | 0.382 | 0.222 | 0.298
HCC-15 | 1.04 | 0.999 | 0.896 | 0.769 | 0.688 | 0.661 | 0.706 | 0.441 | 0.57 | 0.487 | 0.489 | 0.492 | 0.368 | 0.727 | 0.778 | 0.703 | 0.495
HCC-44 | 0.882 | 0.823 | 0.933 | 0.806 | 1.08 | 1.01 | 1.01 | 0.956 |  |  |  |  |  | 0.6 | 0.655 | 0.568 | 0.626
HCC-78 | 0.443 | 0.482 | 0.461 | 0.47 | 0.716 | 0.799 | 0.724 | 0.589 | 0.421 | 0.439 | 0.328 | 0.35 | 0.34 | 0.221 | 0.224 | 0.2 | 0.191
HCC-366 | 1.04 | 1.05 | 1.03 | 0.884 | 0.375 | 0.344 | 0.315 | 0.243 | 0.625 | 0.64 | 0.479 | 0.493 | 0.287 | 0.137 | 0.143 | 0.156 | 0.149

Reference: the supplement of paper PMC10307832
